Data from patent US5622989A, “Amino-benzofuryl-and thienyl-derivatives” (Bayer Aktiengesellschaft, priority 1994, dated 1997).
pIC50: −log10 of the molar value.

Test system: human PMN
Assay: Inhibition of FMLP-stimulated production of superoxide radical anions
Type: cell-based
Conditions: Neutrophil, neutrophils stimulated with 4×10^-8 M FMLP; for inhibition at 10 µM: 10 μM compound
Method: 1. Preparation of human PMN
Blood was taken from healthy subjects by venous puncture and neutrophils were purified by dextran sedimentation and resuspended in the buffered medium.
2. Inhibition of FMLP-stimulated production of superoxide racidal anions.
Neutrophils (2.5×10^5 ml^-1) were mixed with cytochrome C (1.2 mg/ml) in the wells of a microtitre plate. Compounds according to the invention were added in dimethyl sulphoxide (DMSO). Compound concentration ranged from 2.5 nM to 10 μM, the DMSO concentration was 0.1% v/v in all wells. After addition of cytochalasin b (5 μg×ml^-1) the plate was incubated for 5 min at 37° C. Neutrophils were then stimulated by addition of 4×10^-8 M FMLP and superoxide generation measured as superoxide dismutase inhibitable reduction of cytochrome C by monitoring the OD550 in a Thermomax microtitre plate spectrophotometer. Initial rates were calculated using a Softmax kinetic calculation programme. Blank wells contained 200 units of superoxide dismutase.
The inhibition of superoxide production was calculated as follows: [formula] Rx=Rate of the well containing the compound according to the invention. Ro=Rate in the control well.
Rb=Rate in the superoxide dismutase containing blank well.

SMILES	inhibition at 10 µM [%]	pIC50
CSc1ccc(C(=O)c2oc3cc(NC(C)=O)ccc3c2CCC(=O)O)cc1 [Example 21]	90	6.38
COc1cccc(C(=O)c2oc3cc(NC(C)=O)ccc3c2CCC(=O)O)c1 [Example 24]	68	6.22
